The target in one series is T1, Thromboxane-A synthase (Homo sapiens, UniProt P24557).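 Further: enzyme inhibition assay with PGH2 supplied as substrate; in other assays of this panel Not Active means under 50% inhibition at 10 µM.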
T1 sequence (P24557 whole entry): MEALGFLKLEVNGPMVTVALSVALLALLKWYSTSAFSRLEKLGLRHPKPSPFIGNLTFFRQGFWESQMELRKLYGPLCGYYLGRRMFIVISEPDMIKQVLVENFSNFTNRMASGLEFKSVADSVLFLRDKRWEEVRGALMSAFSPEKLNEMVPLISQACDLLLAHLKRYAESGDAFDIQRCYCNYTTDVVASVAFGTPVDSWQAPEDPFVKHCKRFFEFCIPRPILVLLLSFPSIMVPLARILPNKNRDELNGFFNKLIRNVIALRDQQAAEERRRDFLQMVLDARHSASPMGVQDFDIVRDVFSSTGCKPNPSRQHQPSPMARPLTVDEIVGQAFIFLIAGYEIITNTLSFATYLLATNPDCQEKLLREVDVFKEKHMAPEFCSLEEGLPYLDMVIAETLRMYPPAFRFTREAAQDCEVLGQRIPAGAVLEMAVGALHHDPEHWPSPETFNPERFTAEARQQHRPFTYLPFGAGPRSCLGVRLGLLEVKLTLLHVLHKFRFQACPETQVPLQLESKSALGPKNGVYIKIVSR
The experiment in a line: biochemical. To be noted: platelet. The class given is tissue-based, Platelet.

For another series, the target named is Cytochrome P450 2E1 (Homo sapiens, UniProt P05181). As to conditions: bti-tn-5b1-4. Further: in other assays of this panel Not Active means under 50% inhibition at 10 µM.
Cytochrome P450 2E1, sequence (P05181 whole entry): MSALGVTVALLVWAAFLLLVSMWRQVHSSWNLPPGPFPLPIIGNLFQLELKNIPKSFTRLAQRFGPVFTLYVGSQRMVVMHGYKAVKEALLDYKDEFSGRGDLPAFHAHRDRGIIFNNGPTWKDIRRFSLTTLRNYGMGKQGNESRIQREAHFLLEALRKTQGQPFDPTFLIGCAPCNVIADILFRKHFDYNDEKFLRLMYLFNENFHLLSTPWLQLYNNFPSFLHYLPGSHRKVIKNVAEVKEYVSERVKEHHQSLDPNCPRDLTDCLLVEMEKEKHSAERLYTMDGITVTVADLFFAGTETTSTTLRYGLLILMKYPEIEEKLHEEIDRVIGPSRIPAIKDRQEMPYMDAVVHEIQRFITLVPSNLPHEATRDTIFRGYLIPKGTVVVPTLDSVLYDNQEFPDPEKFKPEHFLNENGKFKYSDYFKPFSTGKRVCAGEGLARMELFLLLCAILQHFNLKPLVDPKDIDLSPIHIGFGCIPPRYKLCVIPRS
A short description of series [1]: DRUGMATRIX: GABAA, Flunitrazepam, Central radioligand binding (ligand: [3H] Flunitrazepam). Type of series: cell membranes, Rattus norvegicus, Wistar, Brain, Membrane. To be noted: Not Active = under 50% inhibition at 10 µM.
Series [2] has as its target T2, Alpha-1B adrenergic receptor (Rattus norvegicus, UniProt P15823).
T2 sequence (P15823 whole entry): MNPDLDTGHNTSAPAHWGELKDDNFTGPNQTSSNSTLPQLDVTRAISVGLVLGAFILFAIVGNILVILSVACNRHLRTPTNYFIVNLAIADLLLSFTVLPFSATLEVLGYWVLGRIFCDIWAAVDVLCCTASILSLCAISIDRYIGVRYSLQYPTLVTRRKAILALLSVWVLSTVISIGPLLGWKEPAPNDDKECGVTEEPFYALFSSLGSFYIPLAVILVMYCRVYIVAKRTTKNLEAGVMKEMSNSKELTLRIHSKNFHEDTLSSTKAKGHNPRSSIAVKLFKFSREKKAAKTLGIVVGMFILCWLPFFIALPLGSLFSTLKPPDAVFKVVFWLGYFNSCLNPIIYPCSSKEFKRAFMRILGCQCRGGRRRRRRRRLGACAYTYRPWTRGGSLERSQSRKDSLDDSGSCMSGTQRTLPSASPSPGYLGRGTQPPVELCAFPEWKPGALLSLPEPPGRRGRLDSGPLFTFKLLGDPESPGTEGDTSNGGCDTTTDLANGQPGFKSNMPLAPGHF
The experiment in a line: DRUGMATRIX: Alpha-1B adrenergic receptor radioligand binding (ligand: prazosin). Type of series: cell membranes, Wistar, Liver, Membrane. To be noted: Not Active = under 50% inhibition at 10 µM.

The target in series [3] is 5-hydroxytryptamine receptor 6 (Homo sapiens, UniProt P50406). The class given is cell membranes, HeLa, Membrane. Further: in other assays of this panel Not Active means under 50% inhibition at 10 µM.
5-hydroxytryptamine receptor 6, sequence (P50406 whole entry): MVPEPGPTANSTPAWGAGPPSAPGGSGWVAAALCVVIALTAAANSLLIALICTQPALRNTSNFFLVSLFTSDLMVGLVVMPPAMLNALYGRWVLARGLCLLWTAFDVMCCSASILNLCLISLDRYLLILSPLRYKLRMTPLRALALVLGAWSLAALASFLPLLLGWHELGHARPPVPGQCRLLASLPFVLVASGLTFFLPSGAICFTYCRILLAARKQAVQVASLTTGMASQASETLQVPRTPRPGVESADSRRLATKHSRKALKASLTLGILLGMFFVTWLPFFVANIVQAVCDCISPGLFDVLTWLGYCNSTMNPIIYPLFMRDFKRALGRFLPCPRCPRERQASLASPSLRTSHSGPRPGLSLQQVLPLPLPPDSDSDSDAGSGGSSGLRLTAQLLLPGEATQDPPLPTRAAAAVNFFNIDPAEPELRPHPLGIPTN
The target of another series is Melanocortin receptor 3 (Homo sapiens, UniProt P41968). Type of series: cell membranes, HEK293, Membrane. As to conditions: hek293. Further: in other assays of this panel Not Active means under 50% inhibition at 10 µM.
Melanocortin receptor 3, sequence (P41968 whole entry): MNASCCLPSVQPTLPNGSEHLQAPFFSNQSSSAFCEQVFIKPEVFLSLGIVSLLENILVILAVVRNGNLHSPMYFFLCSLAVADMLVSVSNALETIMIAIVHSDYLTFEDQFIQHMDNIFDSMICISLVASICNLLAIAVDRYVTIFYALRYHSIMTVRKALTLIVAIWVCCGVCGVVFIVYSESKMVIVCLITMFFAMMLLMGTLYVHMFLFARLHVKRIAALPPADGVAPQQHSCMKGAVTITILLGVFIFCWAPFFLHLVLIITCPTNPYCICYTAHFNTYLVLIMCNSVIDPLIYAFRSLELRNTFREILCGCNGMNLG
Series [4] deals with Mitogen-activated protein kinase 3 (Homo sapiens, UniProt P27361). Put plainly: DRUGMATRIX: Protein Serine/Threonine Kinase, ERK1 enzyme inhibition (substrate: Myelin Basic Protein). On the set-up: species or system Escherichia coli. As to conditions: Not Active = under 50% inhibition at 10 µM.
Mitogen-activated protein kinase 3, sequence (P27361 whole entry): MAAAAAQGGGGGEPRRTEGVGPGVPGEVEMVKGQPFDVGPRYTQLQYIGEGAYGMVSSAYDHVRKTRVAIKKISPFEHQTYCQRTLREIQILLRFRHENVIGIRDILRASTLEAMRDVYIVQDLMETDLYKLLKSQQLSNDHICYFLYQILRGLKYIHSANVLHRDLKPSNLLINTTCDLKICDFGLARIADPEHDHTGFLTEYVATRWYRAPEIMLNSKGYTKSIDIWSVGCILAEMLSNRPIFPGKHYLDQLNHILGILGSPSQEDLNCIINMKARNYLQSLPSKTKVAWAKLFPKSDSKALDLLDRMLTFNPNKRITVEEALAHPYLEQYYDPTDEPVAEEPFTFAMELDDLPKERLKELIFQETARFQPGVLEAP

Among the data in ChEMBL document CHEMBL1909046, “DrugMatrix in vitro pharmacology data” are IC50 and Ki values, retold here.

`NC1=NC(=O)C(c2ccccc2)O1` (configuration not stated) [PEMOLINE]: the concentration for half-maximal inhibition (IC50) entry (against Thromboxane-A synthase; at Cytochrome P450 2E1; in series [1]; in series [2]; in series [3] (hela); against Melanocortin receptor 3) was “Not Active” in each case. Besides, in series [4], the IC50 entry is reported as “Not Active”. Besides, the inhibition constant Ki result (on Cytochrome P450 2E1; in series [1]) was “Not Active” throughout.
As for `Nc1nc2c(ncn2CCC(CO)CO)c(=O)[nH]1` [PENCICLOVIR], the IC50 result (against Thromboxane-A synthase; against Cytochrome P450 2E1; in series [1]; in series [2]; in series [3] (hela); on Melanocortin receptor 3) was “Not Active” throughout. In addition, the IC50 result in series [4] is reported as “Not Active”. In addition, the Ki entry (on Cytochrome P450 2E1; in series [1]) was “Not Active” in each case.
On to `C=C(C)C1(O)OC(=O)C=C1OC` (configuration not stated) [PENICILLIC ACID], for which the IC50 result (on Thromboxane-A synthase; on Cytochrome P450 2E1; in series [1]; in series [2]; in series [3] (hela); on Melanocortin receptor 3) was “Not Active” in each case. Further, in series [4], the IC50 result was “Not Active”. In addition, the Ki entry (on Cytochrome P450 2E1; in series [1]) was “Not Active” in each case.
In the case of `CCCN1C[C@H](CSC)C[C@@H]2c3cccc4[nH]cc(c34)C[C@H]21` [PERGOLIDE], the IC50 result is “Not Active” against Thromboxane-A synthase; “Not Active” against Cytochrome P450 2E1; “Not Active” in series [1]; 2620 nM in series [2] (read-out: IC50); 39 nM in series [3] (read-out: IC50); “Not Active” on Melanocortin receptor 3. Further, the IC50 entry in series [4] is “Not Active”. Besides, the Ki result is “Not Active” at Cytochrome P450 2E1, “Not Active” in series [1], 1450 nM in series [2] (read-out: Ki) and 18 nM in series [3] (read-out: Ki).
`C1CCC(C(CC2CCCCN2)C2CCCCC2)CC1` (configuration not stated) [PERHEXILINE]: the IC50 entry (against Thromboxane-A synthase; against Cytochrome P450 2E1; in series [1]; in series [2]; in series [3] (hela); against Melanocortin receptor 3) was “Not Active” each time. For the same molecule, the IC50 entry in series [4] was “Not Active”. The inhibitory constant (Ki) result (on Cytochrome P450 2E1; in series [1]) was “Not Active” each time.
Turning to `CCOc1ccc(NC(C)=O)cc1` [PHENACETIN], the half-maximal inhibitory concentration (IC50) result (on Thromboxane-A synthase; on Cytochrome P450 2E1; in series [1]; in series [2]; in series [3] (hela); on Melanocortin receptor 3) was “Not Active” throughout. Also, the half-inhibitory concentration (IC50) entry in series [4] is recorded as “Not Active”. The Ki result (at Cytochrome P450 2E1; in series [1]) was “Not Active” each time.
`CNNCc1ccc(C(=O)NC(C)C)cc1` [PROCARBAZINE]: the IC50 entry (against Thromboxane-A synthase; against Cytochrome P450 2E1; in series [1]; in series [2]; in series [3] (hela); against Melanocortin receptor 3) was “Not Active” each time. In series [4], the IC50 result is given as “Not Active”. Moreover, the Ki result (on Cytochrome P450 2E1; in series [1]) was “Not Active” each time.
With `CN(C)CCCN1c2ccccc2Sc2ccccc21` [PROMAZINE], the IC50 result is “Not Active” at Thromboxane-A synthase; “Not Active” on Cytochrome P450 2E1; “Not Active” in series [1]; 8.19 nM in series [2] (read-out: IC50); 274 nM in series [3] (read-out: IC50); “Not Active” at Melanocortin receptor 3. Besides, the concentration for half-maximal inhibition (IC50) entry in series [4] is on record as “Not Active”. The Ki result was “Not Active” on Cytochrome P450 2E1, “Not Active” in series [1], 4.53 nM in series [2] (read-out: Ki) and 127 nM in series [3] (read-out: Ki).
Consider `CC(O)CO` (configuration not stated) [PROPYLENE GLYCOL], for which the 50% inhibitory concentration (IC50) entry (at Thromboxane-A synthase; against Cytochrome P450 2E1; in series [1]; in series [2]; in series [3] (hela); against Melanocortin receptor 3) was “Not Active” in each case. Moreover, the IC50 entry in series [4] is “Not Active”. Also, the Ki result (at Cytochrome P450 2E1; in series [1]) was “Not Active” in each case.
For the molecule CADMIUM ACETATE, the 50% inhibitory concentration (IC50) result (against Thromboxane-A synthase; against Cytochrome P450 2E1; in series [1]; in series [2]; in series [3] (hela); on Melanocortin receptor 3) was “Not Active” each time. Also, in series [4], the IC50 result is reported as “Not Active”. Further, the inhibition constant (Ki) result (at Thromboxane-A synthase; at Cytochrome P450 2E1; in series [1]; in series [2]; in series [3] (hela); on Melanocortin receptor 3) was “Not Active” throughout. Further, in series [4], the inhibition constant Ki result is “Not Active”.
For the molecule LEAD (II) ACETATE, the 50% inhibitory concentration (IC50) result (against Thromboxane-A synthase; against Cytochrome P450 2E1; in series [1]; in series [2]; in series [3] (hela); against Melanocortin receptor 3) was “Not Active” each time. Further, the IC50 entry in series [4] was “Not Active”. Also, the Ki entry (at Thromboxane-A synthase; on Cytochrome P450 2E1; in series [1]; in series [2]; in series [3] (hela); on Melanocortin receptor 3) was “Not Active” throughout. In addition, the inhibitory constant (Ki) result in series [4] was “Not Active”.
As to LIPOPOLYSACCHARIDE E. COLI O55:B5, the IC50 result (against Thromboxane-A synthase; against Cytochrome P450 2E1; in series [1]; in series [2]; in series [3] (hela); against Melanocortin receptor 3) was “Not Active” each time. Also, the half-maximal inhibitory concentration (IC50) result in series [4] is “Not Active”. Also, the Ki entry (at Thromboxane-A synthase; on Cytochrome P450 2E1; in series [1]; in series [2]; in series [3] (hela); at Melanocortin receptor 3) was “Not Active” each time. In addition, the inhibitory constant (Ki) result in series [4] is “Not Active”.

What is called IC50 is the concentration that gives 50% inhibition. As a reminder, the Ki is the equilibrium dissociation constant of an inhibitor or competing ligand from its target.
